Like-named read-outs stand apart in the source and are kept apart here.
Experiment: Aqueous solubility of phosphate prodrugs compared with parent compounds
Format: physicochemical
Details: compounds of Examples in the form of their disodium salts
[1] = water (aqueous), read-out: Solubility

| SMILES | solubility [1] [mg/mL] | solubility [mg/mL] |
| --- | --- | --- |
| C[C@@H](c1ncncc1F)[C@@](Cn1cncn1)(OP(=O)(O)O)c1ccc(F)cc1F [Example 3, (2R,3S)-2-(2,4-Difluorophenyl)-3-(5-fluoro-4-pyrimidinyl)-1-(1H-1,2,4-triazol-1-yl)-2-butyl dihydrogen phosphate] | > 150 |  |
| O=P(O)(O)OC(Cn1cncn1)(Cn1cncn1)c1ccc(F)cc1F [Example 1, 2-(2,4-Difluorophenyl)-1,3-bis(1H-1,2,4-triazol-1-yl)-2-propyl Dihydrogen Phosphate] | > 150 |  |
| C[C@@H](c1ccc(-c2ccnn2C)cc1)[C@@](Cn1cncn1)(OP(=O)([O-])[O-])c1ccc(F)cc1F.[Na+].[Na+] [Example 8, (2R,3S)-2-(2,4-Difluorophenyl)-3-[4-(1-methylpyrazol-5-yl)phenyl]-1-(1,2,4-triazol-1-yl)-2-butyl disodium phosphate] |  | >50 |

Reference: patent US6790957B2, “Triazole derivatives useful in therapy” (Pfizer, Inc., priority 1996, dated 2004)
